Data on three compounds can be found in patent US20220331467A1, “HALAL DISINFECTANT LIQUID” (priority 2019, published 2022).

The structures appear in SMILES notation.

Data set [1] relates to eye. The settings on record: OECD TG 405; cited from earlier work.
Data set [2] concerns guinea pig skin. The settings on record: female, Slc:Hartley, in vivo. How it is done:
To find information related to the skin sensitization of a chlorous acid aqueous solution formulation, a Maximization Test was conducted using 20 female Slc:Hartley guinea pigs (SPF). […] In the test substance treatment group, 0.2 w/v % test substance solution (medium: distilled water) was intradermally injected in the first sensitization treatment using 10 animals, and a closed patch of 100% test substance solution (undiluted solution) was applied for 48 hours in the second sensitization treatment. A closed patch of 20 w/v % test substance solution was applied for 24 hours for elicitation treatment.
The prepared administered solutions (1) to (3) (section 14.9.1) of each test group were intradermally injected at 0.1 mL each to correspond to administration sites (1) to (3) in image 1.
The chest and back (image 1, site (4)) of an animal were shaved using an electric clipper and shaver on day 7. Open patch of 10% sodium dodecyl sulfate mixture (section 14.9.2) was applied thinly and homogeneously at the same site to a test substance treatment group and negative control group. […]
The body weight was measured before starting sensitization treatment (day 0) and the day of completion of observation of elicitation treatment sites (day 25). […]
The skin sensitization rate is calculated as [(number of sensitization positive animals/number of animals used)×100].

The subject of data set [3] is rabbit skin. Kind of data set: Skin irritability test using rabbits (OECD 404). It is filed as in vivo. As to conditions: 0.5 mL patch, 4 hours exposure. How it is done: To study the skin irritability and corrosiveness of a chlorous acid aqueous solution formulation, a skin irritability test was conducted using three female Kbl:NZW rabbits. The irritability reaction was compared by setting a three rabbit sodium hypochlorite formulation treatment group as a comparative control group. 0.5 mL of test substance was applied homogenously to a lint patch and exposed 4 hours to the skin on the back of the rabbits. […] In addition, the body weight before administration and at the end of observation was measured.
For administration, 0.5 mL of test substance was spread homogeneously on the lint surface of a 2.45×2.45 cm patch (lint cloth, Hasegawa Menkou) by using a MICROMAN (model M1000, Gilson), and then applied to the back skin of animals using a paper adhesive tape (KENZ). Furthermore, the entire treatment site was covered with a large lint cloth (Hasegawa Menkou), which was secured with an adhesive bandage (New-HALE, Hasegawa Menkou). Exposure time was 4 hours. The patch was removed after completion of exposure. […]
Erythema, eschar formation, and edema at sites of administration were observed 1, 24, 48, and 72 hours after patch removal, and scored in accordance with determination criteria for skin reactions (Draize, 1959). […]
The body weight was measured on the administration date (before administration) and date of completion of observation for all tested animals. […]

For the compound `CCO` [Ethanol 95 v/v %, Ethanol], in data set [1], the “Severe injury to eye or eye irritability (GHS category)” value is on record as “Category 2B”. On to `CCCCCCC(C=O)=Cc1ccccc1` [HCA, α-Hexylcinnamaldehyde], for which, in data set [2], the “Number of animals showing the sign: General condition, No abnormality observed” value is 0 and the “Number of positive animal” value is given as 5. Regarding `OCl` [Sodium hypochlorite, sodium hypochlorite], the “GHS hazard category of dermal irritation/corrosion” value in data set [3] is listed as “Category 1”. Moreover, in data set [1], the “Severe injury to eye or eye irritability (GHS category)” value was “Category 1”.
